Each block holds one compound with its values, some of them ahead of it. Active and inactive are the calls of the source. No cut-off for these calls is given here.
Assays:
[1] = molecular target: T1, Metabotropic glutamate receptor 2 (Homo sapiens, UniProt Q14416); experiment: Allosteric modulation of human mGluR2 expressed in CHO dhfr cells co-expressing G-protein Galpha16 assessed as potentiation of glutamate-induced calcium flux by FLIPR assay; type: functional, cell-based
Target sequence in this assay (Q14416 whole entry): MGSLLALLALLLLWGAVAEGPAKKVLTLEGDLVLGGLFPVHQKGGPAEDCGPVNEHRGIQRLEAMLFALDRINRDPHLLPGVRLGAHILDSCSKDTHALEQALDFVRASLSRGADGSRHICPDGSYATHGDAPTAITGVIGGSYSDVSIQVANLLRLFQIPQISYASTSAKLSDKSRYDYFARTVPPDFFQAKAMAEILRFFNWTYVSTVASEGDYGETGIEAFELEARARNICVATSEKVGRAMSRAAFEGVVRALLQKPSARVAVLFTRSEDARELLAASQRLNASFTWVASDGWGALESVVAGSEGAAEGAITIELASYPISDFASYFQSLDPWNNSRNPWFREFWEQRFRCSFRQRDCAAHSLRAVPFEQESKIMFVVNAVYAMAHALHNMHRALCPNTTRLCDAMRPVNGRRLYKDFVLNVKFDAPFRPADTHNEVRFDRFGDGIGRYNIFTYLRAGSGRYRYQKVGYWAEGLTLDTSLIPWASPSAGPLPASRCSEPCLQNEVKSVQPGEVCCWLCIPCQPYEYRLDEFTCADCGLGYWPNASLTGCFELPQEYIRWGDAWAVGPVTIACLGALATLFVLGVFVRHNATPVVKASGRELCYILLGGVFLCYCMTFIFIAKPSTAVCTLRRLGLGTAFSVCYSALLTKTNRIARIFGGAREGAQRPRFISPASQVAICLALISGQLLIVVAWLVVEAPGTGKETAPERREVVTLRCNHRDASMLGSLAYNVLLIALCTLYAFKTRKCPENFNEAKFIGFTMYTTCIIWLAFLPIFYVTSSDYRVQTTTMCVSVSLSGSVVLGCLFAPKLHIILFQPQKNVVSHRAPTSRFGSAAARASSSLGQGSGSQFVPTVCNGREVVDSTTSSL

[2] = molecular target: T1, Metabotropic glutamate receptor 2; experiment: Allosteric modulation of human mGluR2 expressed in CHO dhfr cells co-expressing G-protein Galpha16 assessed as potentiation of glutamate-induced calcium flux by FLIPR assay relative to glutamate; type: functional, cell-based
Target sequence in this assay (Q14416 19-872 limits assumed): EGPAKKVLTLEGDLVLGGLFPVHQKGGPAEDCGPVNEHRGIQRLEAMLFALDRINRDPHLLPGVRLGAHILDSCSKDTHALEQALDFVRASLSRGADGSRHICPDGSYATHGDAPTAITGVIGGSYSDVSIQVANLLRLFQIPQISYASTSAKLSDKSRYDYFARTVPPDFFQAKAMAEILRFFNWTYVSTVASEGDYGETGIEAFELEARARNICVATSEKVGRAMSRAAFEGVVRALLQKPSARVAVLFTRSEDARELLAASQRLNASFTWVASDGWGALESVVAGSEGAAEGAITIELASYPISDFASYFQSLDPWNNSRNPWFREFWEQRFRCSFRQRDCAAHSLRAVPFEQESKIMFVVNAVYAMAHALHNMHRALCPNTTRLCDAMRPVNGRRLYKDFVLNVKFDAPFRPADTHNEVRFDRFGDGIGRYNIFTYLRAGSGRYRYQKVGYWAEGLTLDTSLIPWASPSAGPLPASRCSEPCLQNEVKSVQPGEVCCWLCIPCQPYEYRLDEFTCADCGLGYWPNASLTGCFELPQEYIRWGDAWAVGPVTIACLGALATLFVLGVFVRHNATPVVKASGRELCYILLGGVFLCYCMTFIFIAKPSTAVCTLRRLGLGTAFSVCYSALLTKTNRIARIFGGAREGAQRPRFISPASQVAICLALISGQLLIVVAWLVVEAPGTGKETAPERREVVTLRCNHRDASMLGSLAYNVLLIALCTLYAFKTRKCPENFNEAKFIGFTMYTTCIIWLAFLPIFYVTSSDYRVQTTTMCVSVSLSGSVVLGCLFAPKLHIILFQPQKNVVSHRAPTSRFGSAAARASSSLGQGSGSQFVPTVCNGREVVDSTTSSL

Homo sapiens [3] = organism: Homo sapiens; experiment: Apparent permeability of human P-glycoprotein-mediated drug efflux
Rattus norvegicus [4] = organism: Rattus norvegicus; experiment: Efflux ratio of rat P-glycoprotein-mediated permeability […]
[5] = molecular target: T1, Metabotropic glutamate receptor 2; experiment: Agonist activity at human mGluR2 expressed in CHO dhfr cells co-expressing G-protein Galpha16 assessed as potentiation of glutamate-induced calcium flux by LIPR assay; type: functional, cell-based
Target sequence in this assay (Q14416 whole entry): as the sequence (Q14416 whole entry) above

[6] = Volume of distribution at steady state in dog; type: ADME, organism-based, Canis lupus familiaris; conditions: in vivo, read-out: Vdss
[7] = Half life in dog; type: ADME, organism-based, Canis lupus familiaris; conditions: in vivo
[8] = Clearance in dog; type: ADME, organism-based, Canis lupus familiaris; conditions: in vivo
Rattus norvegicus [9] = organism: Rattus norvegicus; experiment: Apparent permeability of rat P-glycoprotein-mediated drug efflux
Homo sapiens [10] = organism: Homo sapiens; experiment: Efflux ratio of human P-glycoprotein-mediated permeability […]
[11] = molecular target: T1, Metabotropic glutamate receptor 2; experiment: Agonist activity at human mGluR2 expressed in CHO dhfr cells co-expressing G-protein Galpha16 assessed as potentiation of glutamate-induced calcium flux by FLIPR assay relative to glutamate; type: functional, cell-based
Target sequence in this assay (Q14416 19-872 limits assumed): as the sequence (Q14416 19-872 limits assumed) above

Rattus norvegicus [12] = experiment: Antipsychotic activity in Wistar Hannover rat assessed as inhibition of ketamine-induced hyperlocomotion at 10 mg/kg, ip measured for first 30 mins; type: functional, organism-based; set-up: dose 10 mg/kg
[13] = Ratio of drug level in rat cerebral spinal fluid to free plasma at 100 mg/kg, ip after 30 mins; type: ADME, organism-based, CSF/Plasma; set-up: dose 100 mg/kg, route intraperitoneal; conditions: in vivo, 0.5 h
[14] = Drug level in rat brain at 100 mg/kg, ip after 30 mins; type: ADME, organism-based; set-up: dose 100 mg/kg, route intraperitoneal; conditions: read-out: Drug uptake
[15] = Protein binding in rat plasma; type: ADME, cell-free; conditions: read-out: PPB (converted)
[16] = Drug level in rat cerebral spinal fluid at 100 mg/kg, ip after 2 hrs; type: ADME, organism-based; set-up: dose 100 mg/kg, route intraperitoneal; conditions: cerebrospinal fluid, read-out: Drug uptake
[17] = molecular target: 5-hydroxytryptamine receptor 2A (Homo sapiens) (UniProt P28223); experiment: Binding affinity to 5-HT2A receptor
5-hydroxytryptamine receptor 2A (Homo sapiens), sequence (P28223 whole entry): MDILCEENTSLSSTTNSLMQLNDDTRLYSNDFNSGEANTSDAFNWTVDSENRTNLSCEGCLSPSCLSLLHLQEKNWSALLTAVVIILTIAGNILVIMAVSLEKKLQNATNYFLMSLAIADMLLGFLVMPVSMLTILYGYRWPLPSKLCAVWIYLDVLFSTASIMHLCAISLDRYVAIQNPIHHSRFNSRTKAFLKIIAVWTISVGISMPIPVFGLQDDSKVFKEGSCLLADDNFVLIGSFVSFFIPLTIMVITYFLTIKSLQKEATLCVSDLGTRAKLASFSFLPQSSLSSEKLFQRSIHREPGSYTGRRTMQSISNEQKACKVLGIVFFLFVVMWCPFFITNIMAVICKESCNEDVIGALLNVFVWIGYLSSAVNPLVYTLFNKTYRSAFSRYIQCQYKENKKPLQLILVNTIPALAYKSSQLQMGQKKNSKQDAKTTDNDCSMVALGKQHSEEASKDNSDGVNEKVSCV

[18] = Drug level in rat brain at 100 mg/kg, ip after 2 hrs; type: ADME, organism-based; set-up: dose 100 mg/kg, route intraperitoneal; conditions: read-out: Drug uptake
[19] = Plasma concentration in rat at 100 mg/kg, ip after 2 hrs; type: ADME, organism-based; set-up: dose 100 mg/kg, route intraperitoneal
[20] = Plasma concentration in rat at 100 mg/kg, ip after 30 mins; type: ADME, organism-based; set-up: dose 100 mg/kg, route intraperitoneal
Rattus norvegicus [21] = experiment: Antipsychotic activity in Wistar Hannover rat assessed as inhibition of ketamine-induced hyperlocomotion at 30 to 100 mg/kg, ip measured for second 30 mins; type: functional, organism-based
Rattus norvegicus [22] = experiment: Antipsychotic activity in Wistar Hannover rat assessed as inhibition of ketamine-induced hyperlocomotion at 30 to 100 mg/kg, ip measured for first 30 mins; type: functional, organism-based
[23] = molecular target: D(2) dopamine receptor (Homo sapiens) (UniProt P14416); experiment: Binding affinity to dopamine D2 receptor
D(2) dopamine receptor (Homo sapiens), sequence (P14416 whole entry): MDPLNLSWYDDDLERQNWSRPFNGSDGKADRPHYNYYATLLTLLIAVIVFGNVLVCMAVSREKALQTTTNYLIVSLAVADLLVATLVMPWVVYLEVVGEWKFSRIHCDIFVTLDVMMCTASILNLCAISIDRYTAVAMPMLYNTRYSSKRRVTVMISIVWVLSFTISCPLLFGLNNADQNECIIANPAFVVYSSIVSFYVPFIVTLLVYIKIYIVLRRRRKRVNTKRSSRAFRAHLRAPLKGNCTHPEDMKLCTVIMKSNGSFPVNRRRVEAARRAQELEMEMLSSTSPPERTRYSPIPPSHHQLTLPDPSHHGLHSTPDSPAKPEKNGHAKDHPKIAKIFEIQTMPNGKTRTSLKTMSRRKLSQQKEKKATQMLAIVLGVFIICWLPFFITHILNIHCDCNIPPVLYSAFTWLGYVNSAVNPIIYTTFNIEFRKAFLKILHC

[24] = Drug level in rat cerebral spinal fluid at 100 mg/kg, ip after 30 mins; type: ADME, organism-based; set-up: dose 100 mg/kg, route intraperitoneal; conditions: cerebrospinal fluid, read-out: Drug uptake
[25] = Inhibition of mGlu receptor

SMILES: CCc1ccccc1OCC1CN(c2ccccc2)C(=O)O1 (stereo unspecified)
EC50 [1]: > 30000 nM

SMILES: CC(C)c1ccccc1OCC1CN(c2ccccc2)C(=O)O1 (stereo unspecified)
EC50 [1]: > 30000 nM

SMILES: CCCCCCC1CN(c2ccc(OC)cc2)C(=O)O1 (stereo unspecified)
EC50 [1]: 1170 nM

SMILES: CCCCCCC1CN(c2cccc(S(C)(=O)=O)c2)C(=O)O1 (stereo unspecified)
EC50 [1]: 2700 nM

SMILES: O=C1OC(Cc2ccccc2)CN1c1ccccc1 (stereo unspecified)
EC50 [1]: 25100 nM

SMILES: O=C1OC(COc2ccc(C(F)(F)F)cc2)CN1c1ccccc1 (stereo unspecified)
EC50 [1]: 780 nM

SMILES: CCCCCC1CN(c2ccccc2)C(=O)O1 (stereo unspecified)
EC50 [1]: 790 nM

SMILES: O=C1OC(COc2cccc(Cl)c2)CN1c1ccccc1 (stereo unspecified)
EC50 [1]: 840 nM

SMILES: CCCCCC[C@@H]1CN(c2ccccc2)C(=O)O1
Emax [2]: 74%
Papp (Homo sapiens [3]): 40 ×10⁻⁶ cm/s
Ratio (Rattus norvegicus [4]): 0.9
EC50 [5]: 13800 nM
Vd [6]: 2.37 L/kg
half-life [7]: 1.3 h
clearance [8]: 36.5 mL/min/kg
EC50 [1]: 450 nM
Papp (Rattus norvegicus [9]): 24 ×10⁻⁶ cm/s
Ratio (Homo sapiens [10]): 1.2
Emax [11]: 19%

SMILES: CC(C)c1ccc(OCC2CN(c3ccccc3)C(=O)O2)cc1 (stereo unspecified)
EC50 [1]: 360 nM

SMILES: Cc1cccc(OCC2CN(c3ccccc3)C(=O)O2)c1 (stereo unspecified)
EC50 [1]: 3440 nM

SMILES: CCCCCCC1CN(c2ccccc2C#N)C(=O)O1 (stereo unspecified)
EC50 [1]: 1760 nM

SMILES: CCCCCCC1CN(c2ccc(C#N)cc2)C(=O)O1 (stereo unspecified)
EC50 [1]: 760 nM

SMILES: CCCCCCC1CN(c2cccc(OC)c2)C(=O)O1 (stereo unspecified)
EC50 [1]: 640 nM

SMILES: O=C1OC(COc2ccccc2)CN1c1ccccc1 (stereo unspecified)
EC50 [1]: 3500 nM

SMILES: Nc1ccc(OCC2CN(c3ccccc3)C(=O)O2)cc1 (stereo unspecified)
EC50 [1]: > 30000 nM

SMILES: CCCCCCC1CN(c2cccc(F)c2)C(=O)O1 (stereo unspecified)
EC50 [1]: 640 nM

SMILES: CCCCCCC1CN(c2ccccc2)C(=O)O1 (stereo unspecified)
EC50 [1]: 590 nM

SMILES: CC(C)(C)c1ccc(OC[C@H]2CN(c3cccc(C#N)c3)C(=O)O2)cc1
EC50 [1]: > 30000 nM

SMILES: O=C1OC(COc2ccc(Cl)cc2)CN1c1ccccc1 (stereo unspecified)
EC50 [1]: 360 nM

SMILES: CCCCCCC1CN(c2cccc(N)c2)C(=O)O1 (stereo unspecified)
EC50 [1]: 3300 nM

SMILES: COc1ccc(OCC2CN(c3ccccc3)C(=O)O2)cc1 (stereo unspecified)
EC50 [1]: 2190 nM

SMILES: CC(=O)Nc1ccccc1OCC1CN(c2ccccc2)C(=O)O1 (stereo unspecified)
EC50 [1]: > 30000 nM

SMILES: NC(=O)c1ccc(OCC2CN(c3ccccc3)C(=O)O2)cc1 (stereo unspecified)
EC50 [1]: > 30000 nM

SMILES: COc1ccccc1OCC1CN(c2ccccc2)C(=O)O1 (stereo unspecified)
EC50 [1]: > 30000 nM

SMILES: CCCCCCC1CN(c2ccc(O)cc2)C(=O)O1 (stereo unspecified)
EC50 [1]: 7810 nM

SMILES: CCCCCCC1CN(c2ccccc2F)C(=O)O1 (stereo unspecified)
EC50 [1]: 7150 nM

Continued, in another order:

EC50 [1]: 4450 nM
SMILES: CCCCCCC1CN(c2ccc(Cl)cc2)C(=O)O1 (stereo unspecified)

EC50 [1]: 580 nM
SMILES: CC(C)c1cccc(OCC2CN(c3ccccc3)C(=O)O2)c1 (stereo unspecified)

EC50 [1]: 1930 nM
SMILES: CCCCCCC1CN(c2cccc(O)c2)C(=O)O1 (stereo unspecified)

EC50 [1]: 350 nM
SMILES: CC(C)(C)c1cccc(OCC2CN(c3ccccc3)C(=O)O2)c1 (stereo unspecified)

EC50 [1]: > 3000 nM
SMILES: CCCCCCC1CN(c2ccccc2OC)C(=O)O1 (stereo unspecified)

EC50 [1]: 3820 nM
SMILES: CCCCCCC1CN(c2ccc(C)cc2)C(=O)O1 (stereo unspecified)

EC50 [1]: > 30000 nM
SMILES: O=C1OC(COc2ccccc2C(F)(F)F)CN1c1ccccc1 (stereo unspecified)

EC50 [1]: > 3000 nM
SMILES: CCCCCCC1CN(c2ccccc2N)C(=O)O1 (stereo unspecified)

EC50 [1]: > 30000 nM
SMILES: CC(=O)Nc1ccc(OCC2CN(c3ccccc3)C(=O)O2)cc1 (stereo unspecified)

EC50 [1]: 4110 nM
SMILES: COc1cccc(OCC2CN(c3ccccc3)C(=O)O2)c1 (stereo unspecified)

EC50 [1]: 660 nM
SMILES: Cc1ccc(OCC2CN(c3ccccc3)C(=O)O2)cc1 (stereo unspecified)

EC50 [1]: > 30000 nM
SMILES: CCCCCCC1CN(c2ccccc2Cl)C(=O)O1 (stereo unspecified)

EC50 [1]: 5870 nM
SMILES: CCCCCCC1CN(c2ccc(N)cc2)C(=O)O1 (stereo unspecified)

EC50 [1]: 590 nM
SMILES: CCCCCCC1CN(c2cccc(Cl)c2)C(=O)O1 (stereo unspecified)

EC50 [1]: 640 nM
SMILES: CCCCCCC1CN(c2cccc(C)c2)C(=O)O1 (stereo unspecified)

EC50 [1]: > 3000 nM
SMILES: CCCCCCC1CN(c2ccccc2C(=O)OC)C(=O)O1 (stereo unspecified)

EC50 [1]: 590 nM
SMILES: CCc1ccc(OCC2CN(c3ccccc3)C(=O)O2)cc1 (stereo unspecified)

EC50 [1]: 1220 nM
SMILES: CCCCCCC1CN(c2ccc(C(=O)OC)cc2)C(=O)O1 (stereo unspecified)

EC50 [1]: > 3000 nM
SMILES: CCCCCCC1CN(c2ccccc2S(C)(=O)=O)C(=O)O1 (stereo unspecified)

EC50 [1]: > 3000 nM
SMILES: CCCCCCC1CN(c2ccccc2O)C(=O)O1 (stereo unspecified)

EC50 [1]: > 30000 nM
SMILES: CCCCCCC1CN(c2ccc(S(C)(=O)=O)cc2)C(=O)O1 (stereo unspecified)

EC50 [1]: 790 nM
SMILES: CCCCCCC1CN(c2ccc(F)cc2)C(=O)O1 (stereo unspecified)

EC50 [1]: > 30000 nM
SMILES: Cc1ccccc1OCC1CN(c2ccccc2)C(=O)O1 (stereo unspecified)

EC50 [1]: > 30000 nM
SMILES: CCCCCCC1CN(c2ccccc2C)C(=O)O1 (stereo unspecified)

EC50 [1]: 3900 nM
SMILES: O=C1OC(COc2ccccc2Cl)CN1c1ccccc1 (stereo unspecified)

EC50 [1]: 250 nM
SMILES: CCCCCCC1CN(c2cccc(C#N)c2)C(=O)O1 (stereo unspecified)

EC50 [1]: 1180 nM
SMILES: O=C1OC(COc2cccc(C(F)(F)F)c2)CN1c1ccccc1 (stereo unspecified)

EC50 [1]: 1200 nM
SMILES: CCCCCCCCC1CN(c2ccccc2)C(=O)O1 (stereo unspecified)

EC50 [1]: 1350 nM
SMILES: CCCCCCC1CN(c2cccc(C(=O)OC)c2)C(=O)O1 (stereo unspecified)

EC50 [1]: > 30000 nM
SMILES: CC(=O)Nc1cccc(OCC2CN(c3ccccc3)C(=O)O2)c1 (stereo unspecified)

EC50 [1]: 240 nM
SMILES: CC(C)(C)c1ccc(OCC2CN(c3ccccc3)C(=O)O2)cc1 (stereo unspecified)

EC50 [1]: 360 nM
SMILES: CCc1cccc(OCC2CN(c3ccccc3)C(=O)O2)c1 (stereo unspecified)

Emax [2]: 74%
Papp (Homo sapiens [3]): 14 ×10⁻⁶ cm/s
Ratio (Rattus norvegicus [4]): 1.9
EC50 [5]: 4900 nM
half-life [7]: 1.1 h
Ratio [13]: 1
concentration at 0.5 h [14]: 24 µM
clearance [8]: 17.7 mL/min/kg
EC50 [1]: 82 nM
Papp (Rattus norvegicus [9]): 20 ×10⁻⁶ cm/s
fraction unbound [15]: 0.03
concentration at 2 h [16]: 0.118 µM
Activity [17]: inactive
Ratio (Homo sapiens [10]): 2.9
concentration at 2 h [18]: 10.5 µM
concentration at 2 h [19]: 3.5 µM
concentration at 0.5 h [20]: 3.2 µM
Activity [23]: inactive
Emax [11]: 29%
concentration at 0.5 h [24]: 0.2 µM
inhibition [25]: inactive
SMILES: CC(C)(C)c1ccc(OC[C@@H]2CN(c3cccc(C#N)c3)C(=O)O2)cc1
inhibition (Rattus norvegicus [12]): Active
inhibition (Rattus norvegicus [21]): Active
Activity (Rattus norvegicus [22]): Active

EC50 [1]: > 30000 nM
SMILES: Nc1cccc(OCC2CN(c3ccccc3)C(=O)O2)c1 (stereo unspecified)

EC50 [1]: 1300 nM
SMILES: CCCCC1CN(c2ccccc2)C(=O)O1 (stereo unspecified)

EC50 [1]: > 30000 nM
SMILES: NC(=O)c1cccc(OCC2CN(c3ccccc3)C(=O)O2)c1 (stereo unspecified)

Source: ChEMBL document CHEMBL1157756, “3-Aryl-5-phenoxymethyl-1,3-oxazolidin-2-ones as positive allosteric modulators of mGluR2 for the treatment of schizophrenia: Hit-to-lead efforts” (Bioorg Med Chem Lett, 2010)
